Assay results as given in patent publication US20230339874A1, “PIPERAZINYL COMPOUNDS AND METHODS FOR TREATING NEMATODE INFECTIONS” (The Governing Council of the University of Toronto, priority 2020, published 2023).
Where two headings read alike, the source gives them in different places.

Columns and labels:
[1] = test system: C. elegans L3 larvae; assay: C. elegans L3 larvae abnormal locomotory behaviour on solid agar; details: solid agar MYOB + E. coli OP50, mean of 4 replicates; for % C. elegans L3 larvae any phene 1 h (conc.): 1 h exposure; for % C. elegans L3 larvae any phene 6 h (conc.): 6 h exposure; for % C. elegans L3 larvae any phene 24 h (conc.): 24 h exposure
Method: 20 animals were scored after either 1, 6 or 24 hours of exposure to drug (as indicated) per replicate. […] Data are reported as the mean % of animals with abnormal phenotype over 4 independent replicates.

[2] = test system: Pristionchus pacificus young adult animals; assay: Pristionchus pacificus young adult abnormal locomotory behaviour on solid agar; format: in vivo; details: read-out: P. pacificus, young adult 1 h any phene at 1 h (EC50 (μM))
[3] = test system: Danio rerio (zebrafish) embryos; assay: Danio rerio (zebrafish) embryo abnormal developmental phenotype; format: in vivo
[4] = test system: D. immitis larval stage 3 (L3) worms; assay: D. immitis L3 development assay; format: in vivo; details: 72 h, read-out: D. immitis L3 development EC50 (μM)
[5] = test system: Strongyloides ratti L3; format: in vivo; details: 72 h incubation, 1 replicate
[6] = test system: Heligmosomoides polygyrus larval stage 3 (L3) worms; format: in vivo; details: 72 h incubation, one replicate
[7] = read-out: D. rerio (zebrafish) any phenotype EC50 (μM)
[8] = 1 h exposure, tested at 3.75, 15 and 60 μM, NA = not active, no phenotype at 60 μM
[9] = 1 day post fertilization embryos through 48 h of development, tested at 15 and 3.75 μM, select compounds at 60 and 30 μM, read-out: D. rerio (zebrafish) any phenotype EC50

SMILES	% C. elegans L3 larvae any phene 1 h (conc.) ([1]; 3.75 uM) [%]	% C. elegans L3 larvae any phene 6 h (conc.) ([1]; 3.75 uM) [%]	% C. elegans L3 larvae any phene 24 h (conc.) ([1]; 3.75 uM) [%]	% C. elegans L3 larvae any phene 1 h (conc.) ([1]; 15 uM) [%]	% C. elegans L3 larvae any phene 6 h (conc.) ([1]; 15 uM) [%]	% C. elegans L3 larvae any phene 24 h (conc.) ([1]; 15 uM) [%]	% C. elegans L3 larvae any phene 1 h (conc.) ([1]; 60 uM) [%]	% C. elegans L3 larvae any phene 6 h (conc.) ([1]; 60 uM) [%]	% C. elegans L3 larvae any phene 24 h (conc.) ([1]; 60 uM) [%]	EC50 ([2]; 1 h) [µM]	EC50 [3, 7] [µM]	EC50 [2, 8] [µM]	EC50 [3, 9] [µM]	EC50 [4] [µM]	S. ratti L3 % lethality 25 μM [5] [%]	H. Polygyrus % lethality L3 25 μM [6] [%]
CCN1CCN(CC2CCCCC2)CC1 [I-a]	3.3	0.0	0.0	6.7	0.0	0.0	19.2	5.8	0.0	> 60	> 15	–	–	–	–	–
O=[N+]([O-])c1cccc(CN2CCN(C3CCCCC3)CC2)c1 [II-a]	0.8	0.0	0.0	0.0	0.0	0.0	6.7	2.5	0.0	> 60	–	–	–	–	–	–
O=[N+]([O-])c1ccc(CN2CCN(C3CCCC3)CC2)cc1 [II-b]	0.0	0.8	0.0	2.5	0.0	0.0	23.3	29.2	0.0	> 60	–	–	–	–	–	–
O=C(C1CCCCC1)N1CCN(c2ccc([N+](=O)[O-])cc2)CC1 [III-a]	0.8	0.8	0.0	0.8	5.8	0.0	4.2	24.2	0.0	–	–	> 60	> 15	> 50	–	–
O=C(C1CCCC1)N1CCN(c2ccc([N+](=O)[O-])cc2)CC1 [III-b]	0.0	0.0	0.0	0.0	0.0	0.0	9.2	8.3	0.0	–	–	> 60	7.8	–	–	–
O=C(C1CCC1)N1CCN(c2ccc(F)cc2)CC1 [III-c]	0.0	0.0	0.0	10.0	0.0	0.0	27.5	15.0	0.0	–	–	> 60	> 15	–	–	–
O=C(c1ccc([N+](=O)[O-])cc1)N1CCN(C2CCCC2)CC1 [III-d]	0.8	0.0	0.0	14.2	1.7	0.0	30.8	17.5	0.0	–	–	> 60	> 15	–	–	–
c1cc(N2CCN(CC3CCCCC3)CC2)ccn1 [IV-a]	0.0	0.0	0.0	10.8	0.0	0.0	24.2	12.5	0.0	–	> 15	–	–	–	–	–
c1cc(N2CCN(CC3CCC3)CC2)ccn1 [IV-b]	4.2	0.0	0.0	21.7	0.8	0.0	30.0	4.2	1.7	–	> 15	–	–	–	–	–
Cc1cc([N+](=O)[O-])ccc1N1CCN(CC2CCCCC2)CC1 [V-a]	15.8	0.0	0.0	33.3	15.8	0.0	63.3	27.5	0.0	> 60	5.1	–	–	15	–	–
CC1CCC(N2CCN(c3cccc(Cl)c3)CC2)C1 (centres unmarked) [VI-d]	80.0	11.7	0.0	100.0	59.2	0.0	100.0	100.0	66.7	2.5	15	–	–	–	17.9	56.5
FC(F)(F)c1cccc(N2CCN(CC3CC4C=CC3C4)CC2)c1 (centres unmarked) [VI-f]	34.2	0.0	0.0	81.7	83.2	52.5	100.0	100.0	92.5	2.8	7.8	–	–	–	0	0
FC(F)(F)c1cccc(N2CCN(CC3CCCCC3)CC2)c1 [VI-g]	9.2	0.0	0.0	65.0	21.7	0.0	94.2	54.2	1.7	–	29.3	–	–	–	0	11.6
FC(F)(F)c1cccc(N2CCN(C3CCCCCC3)CC2)c1 [VI-h]	64.2	0.0	0.0	100.0	37.5	25.0	100.0	100.0	62.5	–	7.8	–	–	–	0	0
FC(F)(F)c1cccc(N2CCN(C3CCCCCCC3)CC2)c1 [VI-i]	26.7	0.0	0.0	70.0	0.0	0.0	96.7	58.3	5.0	49.6	4	–	–	> 50	0	11.2
Fc1ccccc1N1CCN(C2CCCCCC2)CC1 [VI-j]	25.8	0.8	0.0	69.2	12.5	0.0	100.0	41.7	9.2	41.5	21.1	–	–	–	66.7	35.4
